As a reminder, the EC50 is the midpoint of the concentration-response curve. A higher EC50 goes with a less potent agent.

*1 amine or outer side, *2 acyl side, *3 side chain or, on linkers, in order; H or OH if unused. Where a SMILES comes first, the peptide text is derived from it. Bridges are numbered along the chain shown (N, C = ends). Side-chain parts run from the residue outwards. [ ]: non-standard residue; d: D form. The star is where a group is joined. C20 diacid = O=C(O)CCCCCCCCCCCCCCCCCCC(=O)*; γGlu = O=C(O)[C@H](CCC(=O)[*:2])N[*:1]; AEEA = NCCOCCOCC(=O)O; Aib = CC(C)(N)C(=O)O Where only a bound is given, the exact number is not on record here.

Experimental findings from patent US20240228572A1 (i2o Therapeutics, Inc., priority 2020, published 2024) are described below.

T1 sequence (P43220 24-463): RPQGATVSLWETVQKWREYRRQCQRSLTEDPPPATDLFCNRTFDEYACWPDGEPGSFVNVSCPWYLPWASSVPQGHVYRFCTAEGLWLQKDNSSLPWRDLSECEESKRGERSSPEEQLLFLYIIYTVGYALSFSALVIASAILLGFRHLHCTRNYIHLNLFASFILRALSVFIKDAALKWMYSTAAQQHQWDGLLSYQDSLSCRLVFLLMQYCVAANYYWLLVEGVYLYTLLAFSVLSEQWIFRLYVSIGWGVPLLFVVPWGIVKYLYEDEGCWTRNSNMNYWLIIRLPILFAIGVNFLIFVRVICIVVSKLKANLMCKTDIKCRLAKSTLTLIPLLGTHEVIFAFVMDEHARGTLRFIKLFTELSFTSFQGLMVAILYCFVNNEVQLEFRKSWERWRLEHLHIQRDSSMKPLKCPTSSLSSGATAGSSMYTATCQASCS

This experiment has as its target T1, human GLP-1 receptor (GLP-1R) (Homo sapiens, UniProt P43220).
T1 construct: expressed in transfected cells
Nature of the experiment: cAMP accumulation assay, CHO-K1 cells stably expressing human GLP-1R. The settings on record: cAMP accumulation, mean pEC50, Table 10. The format is cell-based. As to the method:
In the presence of the non-specific cAMP/cGMP phosphodiesterase inhibitor, 3-isobutyl-1-methylxanthine (IBMX), accumulating cAMP can be measured in vitro using common detection methods. Thus, it is possible to estimate an in vitro potency (pEC50) for peptides activating each of these receptors using fit dose-response curves for cAMP accumulation.
CHO-K1 cells stably expressing human GLP-1R (Genebank accession #NM_002062) were grown in 90% F12-K media supplemented with 10% FBS and 250 μg/ml G418.
On day 1, CHO-K1 cells were plated at 1.5 million cells per T75 flask in 90% F12-K media supplemented with 10% FBS. On day 3 cells were transfected with 40 mcg of each expression plasmid using Lipofectamine 2000 transfection reagent. On day 5, cells were dispensed at 1000 cells per well in white 384-well OptiPlates in 5 mcL of assay buffer consisting of 1×HBSS, 5 mM HEPES, 0.5 mM IBMX, and 0.1% casein.
Peptides were serially diluted 4-fold in assay buffer to final concentrations ranging from 1×10^−9 M to 9.5×10^−16 M. Two assay controls consisting of 50 mcM forskolin (cAMP system maximum) or assay buffer only (cAMP system minimum) were also prepared. Five microliters of each peptide-concentration, or assay control, was added to triplicate wells and incubated for thirty minutes at room temperature. During this incubation step a 4× europium labelled cAMP tracer solution and a 4× Ulight®-anti-cAMP solution (consisting of an anti-cAMP monoclonal antibody labelled with Ulight™ dye) was prepared according to the manufacturer's protocol (PerkinElmer LANCE Ultra cAMP kit). Following this incubation, 5 mcL europium labelled cAMP and 5 mcL Ulight anti-cAMP antibody was added to each well. The plate was covered to prevent evaporation and incubated for 60 minutes at room temperature in the dark. Plates were read on an Envision fluorescent plate reader (PerkinElmer).
Test values were first normalized to the system maximum and system minimum averaged values in Excel using the formula: (test value−system min average)/(system max average -system min average)*100. Normalized test values represent a baseline corrected percentage of the system maximum cAMP response induced by forskolin. Data from up to 3 replicate tests were analyzed for each peptide. Potency values were estimated using GraphPad Prism software (v7.04) by fitting data to a 4-parameter logistic curve model: Y=Bottom+(Top−Bottom)/(1+10^((LogEC50−X))). The Hill slope was constrained to 1.0. EC50 values were converted to pEC50 values using the formula: pEC50=−Log (EC50).
Take `CC(C)C[C@H](NC(=O)[C@H](Cc1ccc(O)cc1)NC(=O)[C@H](CCCCN)NC(=O)[C@H](CO)NC(=O)[C@H](Cc1ccc(O)cc1)NC(=O)[C@H](CC(=O)O)NC(=O)[C@H](CO)NC(=O)[C@@H](NC(=O)[C@H](Cc1ccccc1)NC(=O)[C@@H](NC(=O)CNC(=O)[C@H](Cc1c[nH]cn1)NC(=O)[C@H](CO)NC(=O)[C@@H](N)Cc1ccc(O)cc1)[C@@H](C)O)[C@@H](C)O)C(=O)N[C@@H](CC(=O)O)C(=O)N[C@@H](CCCCNC(=O)CC[C@H](NC(=O)CC[C@H](NC(=O)COCCOCCNC(=O)CCCCCCCCCCCCCCCCCCC(=O)O)C(=O)O)C(=O)O)C(=O)N[C@@H](CCCCN)C(=O)N[C@@H](Cc1ccc(O)cc1)C(=O)N[C@@H](C)C(=O)N[C@@H](CCC(N)=O)C(=O)N[C@@H](CCC(=O)O)C(=O)N[C@@H](Cc1ccccc1)C(=O)N[C@H](C(=O)NC(C)(C)C(=O)N[C@@H](Cc1c[nH]c2ccccc12)C(=O)N[C@@H](CC(C)C)C(=O)N[C@@H](CCC(=O)O)C(=O)N[C@@H](CCC(N)=O)C(=O)N[C@@H](CCC(=O)O)C(=O)N1CCC[C@H]1C(=O)N[C@@H](CO)C(=O)N[C@@H](CO)C(=O)NCC(=O)N[C@@H](C)C(=O)N1CCC[C@H]1C(=O)N1CCC[C@H]1C(=O)N1CCC[C@H]1C(=O)N[C@@H](CO)C(=O)O)C(C)C` [Compound A17] (H-YSHGTFTSDYSKYLDK([γGlu-γGlu-AEEA-C20 diacid])KYAQEFV[Aib]WLEQEPSSGAPPPS-OH; N-terminus assumed): the EC50 is more than 1 nM.
The value for `CC(C)C[C@H](NC(=O)[C@H](Cc1ccc(O)cc1)NC(=O)[C@H](CCCCN)NC(=O)[C@H](CO)NC(=O)[C@H](Cc1ccc(O)cc1)NC(=O)[C@H](CC(=O)O)NC(=O)[C@H](CO)NC(=O)[C@@H](NC(=O)[C@H](Cc1ccccc1)NC(=O)[C@@H](NC(=O)CNC(=O)[C@H](Cc1c[nH]cn1)NC(=O)[C@H](CO)NC(=O)[C@@H](N)Cc1ccc(O)cc1)[C@@H](C)O)[C@@H](C)O)C(=O)N[C@@H](CC(=O)O)C(=O)N[C@@H](CCCCNC(=O)CC[C@H](NC(=O)CC[C@H](NC(=O)COCCOCCNC(=O)CCCCCCCCCCCCCCCCCCC(=O)O)C(=O)O)C(=O)O)C(=O)N[C@@H](CCCCN)C(=O)N[C@@H](Cc1ccc(O)cc1)C(=O)N[C@@H](C)C(=O)N[C@@H](CCC(N)=O)C(=O)N[C@@H](CCC(=O)O)C(=O)N[C@@H](Cc1ccccc1)C(=O)N[C@H](C(=O)NC(C)(C)C(=O)N[C@@H](Cc1c[nH]c2ccccc12)C(=O)N[C@@H](CC(C)C)C(=O)N[C@@H](CCC(=O)O)C(=O)N[C@@H](CO)C(=O)N[C@@H](CCC(=O)O)C(=O)N1CCC[C@H]1C(=O)N[C@@H](CO)C(=O)N[C@@H](CO)C(=O)NCC(=O)N[C@@H](C)C(=O)N1CCC[C@H]1C(=O)N1CCC[C@H]1C(=O)N1CCC[C@H]1C(=O)N[C@@H](CO)C(=O)O)C(C)C` [Compound A19] (H-YSHGTFTSDYSKYLDK([γGlu-γGlu-AEEA-C20 diacid])KYAQEFV[Aib]WLESEPSSGAPPPS-OH) was more than 1 nM; that for `CC(C)C[C@H](NC(=O)[C@H](Cc1ccc(O)cc1)NC(=O)[C@H](CCCCN)NC(=O)[C@H](CO)NC(=O)[C@H](Cc1ccc(O)cc1)NC(=O)[C@H](CC(=O)O)NC(=O)[C@H](CO)NC(=O)[C@@H](NC(=O)[C@H](Cc1ccccc1)NC(=O)[C@@H](NC(=O)CNC(=O)[C@H](Cc1c[nH]cn1)NC(=O)[C@H](CO)NC(=O)[C@@H](N)Cc1ccc(O)cc1)[C@@H](C)O)[C@@H](C)O)C(=O)N[C@@H](CC(=O)O)C(=O)N[C@@H](CCCCNC(=O)CC[C@H](NC(=O)CC[C@H](NC(=O)COCCOCCNC(=O)CCCCCCCCCCCCCCCCCCC(=O)O)C(=O)O)C(=O)O)C(=O)N[C@@H](CCCCN)C(=O)N[C@@H](Cc1ccc(O)cc1)C(=O)N[C@@H](C)C(=O)N[C@@H](CCC(N)=O)C(=O)N[C@@H](CCC(=O)O)C(=O)N[C@@H](Cc1ccccc1)C(=O)N[C@H](C(=O)NC(C)(C)C(=O)N[C@@H](Cc1c[nH]c2ccccc12)C(=O)N[C@@H](CC(C)C)C(=O)N[C@@H](CCC(=O)O)C(=O)N[C@@H](CCCCN)C(=O)N[C@@H](CCC(=O)O)C(=O)N1CCC[C@H]1C(=O)N[C@@H](CO)C(=O)N[C@@H](CO)C(=O)NCC(=O)N[C@@H](C)C(=O)N1CCC[C@H]1C(=O)N1CCC[C@H]1C(=O)N1CCC[C@H]1C(=O)N[C@@H](CO)C(=O)O)C(C)C` [Compound A20] (H-YSHGTFTSDYSKYLDK([γGlu-γGlu-AEEA-C20 diacid])KYAQEFV[Aib]WLEKEPSSGAPPPS-OH; N-terminus assumed) was more than 1 nM; that for `CC(C)C[C@H](NC(=O)[C@H](Cc1ccc(O)cc1)NC(=O)[C@H](CCCCN)NC(=O)[C@H](CO)NC(=O)[C@H](Cc1ccc(O)cc1)NC(=O)[C@H](CC(=O)O)NC(=O)[C@H](CO)NC(=O)[C@@H](NC(=O)[C@H](Cc1ccccc1)NC(=O)[C@@H](NC(=O)CNC(=O)[C@H](Cc1c[nH]cn1)NC(=O)[C@H](CO)NC(=O)[C@@H](N)Cc1ccc(O)cc1)[C@@H](C)O)[C@@H](C)O)C(=O)N[C@@H](CC(=O)O)C(=O)N[C@@H](CCCCNC(=O)CC[C@H](NC(=O)CC[C@H](NC(=O)COCCOCCNC(=O)CCCCCCCCCCCCCCCCCCC(=O)O)C(=O)O)C(=O)O)C(=O)N[C@@H](CCCCN)C(=O)N[C@@H](Cc1ccc(O)cc1)C(=O)N[C@@H](C)C(=O)N[C@H]1CCC(=O)NCCCC[C@@H](C(=O)N[C@@H](Cc2c[nH]c3ccccc23)C(=O)N[C@@H](CC(C)C)C(=O)N[C@@H](CCC(=O)O)C(=O)N[C@@H](CC(=O)O)C(=O)N[C@@H](CCC(=O)O)C(=O)N2CCC[C@H]2C(=O)N[C@@H](CO)C(=O)N[C@@H](CO)C(=O)NCC(=O)N[C@@H](C)C(=O)N2CCC[C@H]2C(=O)N2CCC[C@H]2C(=O)N2CCC[C@H]2C(=O)N[C@@H](CO)C(=O)O)NC(=O)[C@H](C(C)C)NC(=O)[C@H](Cc2ccccc2)NC(=O)[C@H](CCCCN)NC1=O` [Compound A21] (H-YSHGTFTSDYSKYLDK([γGlu-γGlu-AEEA-C20 diacid])KYAEKFVKWLEDEPSSGAPPPS-OH; lactam 20-24; N-terminus assumed) was more than 1 nM.
The value for `CC(C)C[C@H](NC(=O)[C@H](Cc1ccc(O)cc1)NC(=O)[C@H](CCCCN)NC(=O)[C@H](CO)NC(=O)[C@H](Cc1ccc(O)cc1)NC(=O)[C@H](CC(=O)O)NC(=O)[C@H](CO)NC(=O)[C@@H](NC(=O)[C@H](Cc1ccccc1)NC(=O)[C@@H](NC(=O)CNC(=O)[C@H](Cc1c[nH]cn1)NC(=O)[C@H](CO)NC(=O)[C@@H](N)Cc1ccc(O)cc1)[C@@H](C)O)[C@@H](C)O)C(=O)N[C@@H](CC(=O)O)C(=O)N[C@@H](CCCCNC(=O)CC[C@H](NC(=O)CC[C@H](NC(=O)COCCOCCNC(=O)CCCCCCCCCCCCCCCCCCC(=O)O)C(=O)O)C(=O)O)C(=O)N[C@@H](CCCCN)C(=O)N[C@@H](Cc1ccc(O)cc1)C(=O)N[C@@H](C)C(=O)N[C@@H](CO)C(=O)N[C@@H](CCC(=O)O)C(=O)N[C@@H](Cc1ccccc1)C(=O)N[C@H](C(=O)NC(C)(C)C(=O)N[C@@H](Cc1c[nH]c2ccccc12)C(=O)N[C@@H](CC(C)C)C(=O)N[C@@H](CCC(=O)O)C(=O)N[C@@H](CO)C(=O)N[C@@H](CCC(=O)O)C(=O)N1CCC[C@H]1C(=O)N[C@@H](CO)C(=O)N[C@@H](CO)C(=O)NCC(=O)N[C@@H](C)C(=O)N1CCC[C@H]1C(=O)N1CCC[C@H]1C(=O)N1CCC[C@H]1C(=O)N[C@@H](CO)C(=O)O)C(C)C` [Compound A24] (H-YSHGTFTSDYSKYLDK([γGlu-γGlu-AEEA-C20 diacid])KYASEFV[Aib]WLESEPSSGAPPPS-OH; N-terminus assumed) was more than 1 nM.
